Laboratory results from patent publication US20220331348A1, “METHOD OF PREPARING PENTACYCLIC TRITERPENOID SAPONINS AND DRUG COMPOSITION” (CHINA PHARMACEUTICAL UNIVERSITY, priority 2019, published 2022).
Marks after values point to notes of the source that are not given here.

Assays:
[1] = test system: TNBS modeled Crohn's disease model mice; assay: 2,4,6-trinitrobenzene sulfonic acid (TNBS) modeled Crohn's disease model mice; assay type: in vivo, mouse; details: dose not given; for expression level of inflammatory factor IL-1β / expression level of inflammatory factor TNF-α: vs model group
Method: C57BL/6 male mice with 6-8 weeks old were selected and randomly divided into a control group, a mode group, a treatment group and a positive control group. Expect for the control group, after the mice in the rest groups anesthetized with isoflurane, hoses were carefully inserted into colons of the mice from anuses, and […] of 1.5% 2,4,6-trinitrobenzene sulfonic acid (TNBS) was slowly injected. Before the hoses were pulled out, the mice were placed upside down for 1 min. First intragastric administration was conducted at the day of enema treatment, the mice in the control group and the model group were orally administered with carboxymethyl cellulose sodium as a placebo, the mice in the treatment group were orally administered with the ziyuglycoside II (purchased from Shanghai Boka Chemistry Technology Co., Ltd) (with a dosage of 5 mg/kg), and the mice in the positive drug group were orally administered with 5-aminosalicylic acid as a clinical drug (5-ASA, purchased from Shanghai Sangon Biological Engineering Co., Ltd) (with a dosage of 100 mg/kg). Administration was continuously conducted for 7 days. In the administration process, the states of the mice were observed every day, and weight changes of the mice were recorded.
Differences in weight change of the mice in various groups were compared, from which, ziyuglycoside II has the treatment effect on the 2, 4, 6-trinitrobenzene sulfonic acid (TNBS) modeled Crohn's disease model mice.
The above mice were sacrificed by cervical dislocation at day 8, colon tissues were harvested, lengths of the colon tissues were measured for statistical summary, and differences in colon length of various groups were compared, from which, the ziyuglycoside II has significant treatment effect on the Crohn's disease model mice. […] 10 mg of proximal rectum segments of the colon tissues of the above mice were selected, PBS was added for homogenization, and centrifugation was conducted for taking a supernate. The supernate was subjected to ELISA detection, and protein quantification was conducted for inflammatory factors TNF- and IL-1. […] Myeloperoxidase (MPO) is an enzyme specific to neutrophils, and the amount of the neutrophils in the intestinal tracts may be reflected by detecting the MPO level. 5 mg of proximal rectum segments of the colon tissues of the above mice were selected, PBS was added for homogenization, and the content of the MPO in a homogenate was detected with a MPO kit (purchased from Nanjing Jiancheng Bioengineering Institute). […] Therefore, the ziyuglycoside II is expected to be useful for preparing the drug for preventing or treating the inflammatory bowel diseases such as the Crohn's disease.

[2] = test system: high fat diet induced NASH model rats; assay: High fat diet (HFD) induced NASH rat model; assay type: in vivo; details: for inflammatory responses of the livers / lipid accumulation, caused by the high fat diets, of the rat livers: HFD NASH rats, summary in words; for Liver TC / Liver TG / Serum LDL-c / Serum TG: HFD induced NASH model rats; for Liver TC / Liver TG / Serum LDL-c / Serum TG / ALT / AST: 5 mg/Kg, n = 8; for ALT / AST: serum of HFD induced NASH model rats
Method: Animal: 32 SD male rats of SPF level with 6 weeks old and 220 g were purchased from Beijing Vital River Laboratory Animal Technology Co., Ltd. All the animals maintained 12 h alternative circadian rhythm with free access to food.
Reagent: the ginsenoside Ro (I) was purchased from Shanghai Boka Chemistry Technology Co., Ltd; obeticholic acid (OCA) was purchased from Jiangsu Vcare PharmaTech Co., Ltd; high fat diets were purchased from Research Diets (D12492, 60 kcal %); and standard feeds were purchased from Research Diets (D12450B, 10 kcal %).
The rats were randomly divided into 4 groups based on the weight: a control group (CHOW), a high fat diet model group (HFD), a positive drug obeticholic acid (OCA, 5 mg/Kg) group (HFD+OCA) and a ginsenoside Ro (Ro for short, 5 mg/kg) group (HFD+Ro). The control group was fed with the standard feeds and drank water normally; and the rest groups were fed with the high fat diets, drank 10% aqueous sucrose solution for replacing the water and were modeled for 20 weeks.
After 20 weeks, the control group and the high fat diet model group were given with a CMC-Na solution with the volume fraction of 0.5% intragastrically every day, the HFD+OCA group was given with the obeticholic acid (5 mg/Kg) intragastrically every day, and the HFD+Ro was given with the ginsenoside Ro (5 mg/Kg) intragastrically every day. Administration was conducted for 8 weeks, during which, the control group was given with the standard feeds and drank the water normally, and the rest three groups were given with the high fat diets and drank 10% aqueous sucrose solution. The rats in each group were weighed every day, weights, hairs, feces and activity conditions were carefully observed and recorded.
The rats were deprived of food but not water for 12 h in advance; and the next morning, blood was taken from eye sockets, the rats were sacrificed, and livers were harvested. Right liver lobule tissues were fixed with 4% paraformaldehyde for HE stained slicing. A part of liver tissues were divided into 3 parts, which were snap-frozen in liquid nitrogen for subsequent detection of other indexes.
Whole blood was left to still standing for 2 h at room temperature, centrifugation was conducted for 15 min at 3000 rpm, and a serum was collected. 100 Mg of liver tissues were taken and homogenized with 0.9 mL of precooled normal saline, a homogenate was centrifuged for 15 min at 4° C. and 3000 rpm, and a supernatant was taken. Both of the serum and the supernatant were sent to Pathologic Department of Hospital of Integrated Traditional Chinese and Western Medicine in Jiangsu Province for determination of levels of triglyceride (TG), total cholesterol (TC), low density lipoprotein cholesterin (LDL-c) and high density lipoprotein cholesterol (HDL-c) in the serum and levels of the TG and the TC in the supernatant of the homogenate of the liver tissues with the full-automatic biochemical analyzer.
Pretreated tissues were sent to Google Biotechnology Co., Ltd for preparing HE stained slices and oil red stained slices.
Liver tissues preserved at −80° C. were put in the liquid nitrogen, about 10 mg of the liver tissues were quickly dissected out, 500 μL of precooled tissue lysate was added, and the tissues were homogenized with a homogenizer and then left to lyse on ice for 30 min; and centrifugation was conducted for 15min at 4° C. and 12000 rpm, […] of a supernatant was sucked to a clean EP tube, […] of the supernatant was taken for BCA protein quantification, […] of 5*loading buffer was added in the rest protein supernatant for denaturing by boiling, SDS-PAGE electrophoresis was conducted subsequently, the proteins were transferred onto a PVDF membrane, then incubation and elution of a relevant antibody were conducted, and finally, a chemiluminescence apparatus was employed for imaging analysis.

C[C@@H]1CC[C@]2(C(=O)O[C@@H]3O[C@H](CO)[C@@H](O)[C@H](O)[C@H]3O)CC[C@]3(C)C(=CC[C@@H]4[C@@]5(C)CC[C@H](O[C@@H]6OC[C@H](O)[C@H](O)[C@H]6O)C(C)(C)[C@@H]5CC[C@]43C)[C@@H]2[C@]1(C)O [(XII), ziyuglycoside I]
colon length of the treatment group compared with the control group [1]: nearly no difference
expression level of inflammatory factor IL-1β [1]: significantly lower than those of the model group
expression level of inflammatory factor TNF-α [1]: significantly lower than those of the model group
inflammatory responses of the livers [2]: inhibit
lipid accumulation, caused by the high fat diets, of the rat livers [2]: effectively lower
Liver TC [2]: 0.547 ± 0.272* mmoL/gprot
Liver TG [2]: 1.302 ± 0.443** mmoL/gprot
Serum LDL-c [2]: 48.52 ± 6.98* mg/dL
Serum TG [2]: 18.32 ± 2.51** mg/dL
ALT [2]: 74.03 ± 12.38* U/L
AST [2]: 120.91 ± 19.32** U/L

C[C@H]1O[C@@H](O[C@H]2CC[C@@]3(C)[C@@H](CC[C@]4(C)[C@@H]3C=C[C@]35OC[C@@]6(CCC(C)(C)C[C@H]63)[C@@H](O)C[C@]54C)[C@]2(C)CO)[C@H](O)[C@@H](O[C@@H]2O[C@H](CO)[C@@H](O)[C@H](O)[C@H]2O)[C@H]1O [(VII), saikosaponin A]
colon length of the treatment group compared with the control group [1]: nearly no difference
expression level of inflammatory factor IL-1β [1]: significantly lower than those of the model group
expression level of inflammatory factor TNF-α [1]: significantly lower than those of the model group
inflammatory responses of the livers [2]: inhibit
lipid accumulation, caused by the high fat diets, of the rat livers [2]: effectively lower
Liver TC [2]: 0.518 ± 0.133** mmoL/gprot
Liver TG [2]: 1.268 ± 0.294** mmoL/gprot
Serum LDL-c [2]: 47.06 ± 7.83* mg/dL
Serum TG [2]: 20.43 ± 4.04* mg/dL
ALT [2]: 71.36 ± 9.26* U/L
AST [2]: 115.24 ± 19.23*** U/L
